Results from patent US10781181B2, “N-((het) arylmethyl)-heteroaryl-carboxamides compounds as plasma kallikrein inhibitors” (Kalvista Pharmaceuticals Limited, priority 2014, dated 2020).

Tests used:
Format in all cases: biochemical
Human FXIa = Human FXIa (Homo sapiens (Human), UniProt P03951); test: Determination of the % inhibition for FXIa; settings: 40 μM of the test compound, human FXIa, 25° C.; for inhibition at 40 µM: read-out: % Inhibition @ 40 μM (human FXIa)
Experimental: Determination of the % Inhibition for FXIa
Human FXIa (Enzyme Research Laboratories) was incubated at 25° C. with the fluorogenic substrate Z-Gly-Pro-Arg-AFC and 40 μM of the test compound. Residual enzyme activity (initial rate of reaction) was determined by measuring the change in […].

Human KLK1 = Human KLK1 (Homo sapiens (Human), UniProt P06870); test: Determination of the IC50 for KLK1; settings: human KLK1, 25° C., substrate H-DVal-Leu-Arg-AFC
Human KLK1, sequence (P06870 25-262): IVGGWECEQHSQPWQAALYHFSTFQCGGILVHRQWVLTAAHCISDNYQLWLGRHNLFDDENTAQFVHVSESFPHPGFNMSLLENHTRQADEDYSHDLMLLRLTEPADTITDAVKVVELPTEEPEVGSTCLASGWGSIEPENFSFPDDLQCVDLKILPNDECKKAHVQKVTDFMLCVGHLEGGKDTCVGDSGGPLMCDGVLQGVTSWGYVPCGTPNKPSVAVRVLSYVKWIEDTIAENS
Experimental: Determination of the IC50 for KLK1
(§1) Human KLK1 (Callbiochem) was incubated at 25° C. with the fluorogenic substrate H-DVal-Leu-Arg-AFC and various concentrations of the test compound. Residual enzyme activity (initial rate of reaction) was determined by measuring the change in […] at 410 nm and the IC50 value for the test compound was determined.

Human plasma kallikrein = Human plasma kallikrein (Homo sapiens (Human), UniProt P03952); test: Determination of the IC50 for plasma kallikrein; settings: read-out: IC50 (human PKal)
Human plasma kallikrein, sequence (P03952 391-638): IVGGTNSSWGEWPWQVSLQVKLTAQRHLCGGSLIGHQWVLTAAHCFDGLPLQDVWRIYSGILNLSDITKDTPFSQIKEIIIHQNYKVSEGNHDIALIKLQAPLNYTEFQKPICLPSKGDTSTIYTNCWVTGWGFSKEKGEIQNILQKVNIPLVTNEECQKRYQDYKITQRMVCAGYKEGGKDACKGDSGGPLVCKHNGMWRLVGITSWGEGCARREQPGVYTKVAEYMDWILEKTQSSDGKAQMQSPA
Human plasma kallikrein, sequence (P03952 20-390 partner): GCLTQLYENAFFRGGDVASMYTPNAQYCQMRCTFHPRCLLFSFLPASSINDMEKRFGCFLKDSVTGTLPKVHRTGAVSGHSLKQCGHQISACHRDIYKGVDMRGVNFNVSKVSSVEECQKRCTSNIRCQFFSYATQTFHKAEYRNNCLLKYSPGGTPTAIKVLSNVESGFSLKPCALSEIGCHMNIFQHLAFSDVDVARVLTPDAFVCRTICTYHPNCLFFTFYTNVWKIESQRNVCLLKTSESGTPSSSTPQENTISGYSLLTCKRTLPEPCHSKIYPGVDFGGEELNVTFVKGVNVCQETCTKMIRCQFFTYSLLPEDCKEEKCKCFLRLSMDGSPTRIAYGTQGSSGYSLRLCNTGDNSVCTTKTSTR
Experimental: Determination of the IC50 for Plasma Kallikrein
as §1, with “plasma kallikrein (Protogen)” for “KLK1 (Callbiochem)”, “H-DPro-Phe-Arg-AFC” for “H-DVal-Leu-Arg-AFC”

Human FXIa, sequence (P03951 388-625 limits assumed): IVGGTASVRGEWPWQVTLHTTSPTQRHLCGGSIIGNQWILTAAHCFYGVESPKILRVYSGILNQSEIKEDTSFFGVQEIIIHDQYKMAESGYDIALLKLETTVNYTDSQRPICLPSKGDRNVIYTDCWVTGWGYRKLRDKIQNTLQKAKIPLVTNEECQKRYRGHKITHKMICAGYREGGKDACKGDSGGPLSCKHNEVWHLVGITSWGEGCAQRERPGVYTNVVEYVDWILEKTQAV
Human FXIa, sequence (P03951 19-387 partner limits assumed): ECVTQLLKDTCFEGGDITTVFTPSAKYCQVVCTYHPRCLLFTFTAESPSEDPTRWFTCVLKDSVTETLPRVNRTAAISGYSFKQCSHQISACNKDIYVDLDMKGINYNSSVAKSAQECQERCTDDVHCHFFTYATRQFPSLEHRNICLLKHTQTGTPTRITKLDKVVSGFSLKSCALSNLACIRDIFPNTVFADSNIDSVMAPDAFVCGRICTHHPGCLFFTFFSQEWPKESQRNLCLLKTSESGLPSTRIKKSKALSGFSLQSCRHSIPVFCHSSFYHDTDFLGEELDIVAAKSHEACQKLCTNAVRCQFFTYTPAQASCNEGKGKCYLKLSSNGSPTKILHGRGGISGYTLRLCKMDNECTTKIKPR

SMILES | inhibition at 40 µM (Human FXIa) [%] | IC50 (Human KLK1) [nM] | IC50 (Human plasma kallikrein) [nM] | % Inhibition @ 40 μM (human FXIa) (Human FXIa) [%]
O=C(NCCOc1cccc(Cl)c1)c1cn(Cc2ccc(Cn3ccccc3=O)cc2)nc1C1CC1 [Example 5, N-[2-(3-chlorophenoxy)ethyl]-3-cyclopropyl-1-({4-[(2-oxopyridin-1-yl)methyl]phenyl}methyl)pyrazole-4-carboxamide] | 0 | > 10000 | 68.4 | 
COCc1nn(Cc2ccc(Cn3ccccc3=O)cc2)cc1C(=O)NCCOc1ccccc1Cl [Example 6, N-[2-(2-chlorophenoxy)ethyl]-3-(methoxymethyl)-1-({4-[(2-oxopyridin-1-yl)methyl]phenyl}methyl)pyrazole-4-carboxamide] | 0 | > 10000 | 1890 | 
COCc1nn(Cc2ccc(Cn3ccccc3=O)cc2)cc1C(=O)NCCOc1cccc(Cl)c1 [Example 8, N-[2-(3-chlorophenoxy)ethyl]-3-(methoxymethyl)-1-({4-[(2-oxopyridin-1-yl)methyl]phenyl}methyl)pyrazole-4-carboxamide] | 0 | > 10000 | 16.6 | 
COCc1nn(Cc2ccc(Cn3ccccc3=O)cc2)cc1C(=O)NCCOc1cc(Cl)ccc1F [Example 9, N-[2-(5-chloro-2-fluorophenoxy)ethyl]-3-(methoxymethyl)-1-({4-[(2-oxopyridin-1-yl)methyl]phenyl}methyl)pyrazole-4-carboxamide] | 0 | > 10000 | 191 | 
COCc1nn(Cc2ccc(Cn3ccccc3=O)cc2)cc1C(=O)NCCOc1cc(F)cc(Cl)c1 [Example 10, N-[2-(3-chloro-5-fluorophenoxy)ethyl]-3-(methoxymethyl)-1-({4-[(2-oxopyridin-1-yl)methyl]phenyl}methyl)pyrazole-4-carboxamide] | 0 | > 10000 | 134 | 
COCc1nn(Cc2ccc(Cn3ccccc3=O)cc2)cc1C(=O)NCCOc1ccc(F)c(Cl)c1 [Example 12, N-[2-(3-chloro-4-fluorophenoxy)ethyl]-3-(methoxymethyl)-1-({4-[(2-oxopyridin-1-yl)methyl]phenyl}methyl)pyrazole-4-carboxamide] | 0 | > 10000 | 266 | 
Cc1ccc(Cl)cc1OCCNC(=O)c1cn(Cc2ccc(Cn3ccccc3=O)cc2)nc1N [Example 14, 3-amino-N-[2-(5-chloro-2-methylphenoxy)ethyl]-1-({4-[(2-oxopyridin-1-yl)methyl]phenyl}methyl)pyrazole-4-carboxamide] | 0 | > 40000 | 161 | 
Cc1ccc(OCCNC(=O)c2cn(Cc3ccc(Cn4ccccc4=O)cc3)nc2N)cc1Cl [Example 15, 3-amlno-N-[2-(3-chloro-4-methylphenoxy)ethyl]-1-({4-[(2-oxopyridin-1-yl)methyl]phenyl}methyl)pyrazole-4-carboxamide] |  | > 40000 | 24.6 | 1
Nc1c(C(=O)NCCOc2cccc(Cl)c2)cnn1Cc1ccc(Cn2ccccc2=O)cc1 [Example 17, 5-amino-N-[2-(3-chlorophenoxy)ethyl]-1-({4-[(2-oxopyridin-1-yl)methyl]phenyl}methyl)pyrazole-4-carboxamide] | 2 | > 10000 | 96 | 
Nc1nn(Cc2ccc(Cn3ccccc3=O)cc2)cc1C(=O)NCCOc1cncc(Cl)c1 [Example 18, 3-amino-N-{2-[(5-chloropyridin-3-yl)oxy]ethyl}-1-({4-[(2-oxopyridin-1-yl)methyl]phenyl}methyl)pyrazole-4-carboxamide] | 0 | > 40000 | 2010 | 
Nc1nn(Cc2ccc(Cn3ccccc3=O)cc2)cc1C(=O)NCCCn1cc(Cl)cn1 [Example 21, 3-amino-N-[3-(4-chloropyrazol-1-yl)propyl]-1-({4-[(2-oxopyridin-1-yl)methyl]phenyl}methyl)pyrazole-4-carboxamide] | 56 | > 40000 | 2790 | 
COCc1nn(Cc2ccc(Cn3cc(C)cn3)cc2)cc1C(=O)NCCOc1cccc(Cl)c1 [Example 27, N-[2-(3-chlorophenoxy)ethyl]-3-(methoxymethyl)-1-({4-[(4-methylpyrazol-1-yl)methyl]phenyl}methyl)pyrazole-4-carboxamide] | 0 | > 10000 | 231 | 
O=C(NCCOc1cccc(Cl)c1)c1cn(Cc2ccc(N3CCCC3)nc2)nc1C(F)(F)F [Example 28, N-[2-(3-chlorophenoxy)ethyl]-1-{[6-(pyrrolidin-1-yl)pyridin-3-yl]methyl}-3-(trifluoromethyl)pyrazole-4-carboxamide] | 0 | > 10000 | 2390 | 
Nc1nn(Cc2ccc(Cn3ccccc3=O)cc2)cc1C(=O)NCCOc1cccc(Cl)c1Cl [Example 29, 3-amino-N-[2-(2,3-dichlorophenoxy}ethyl]-1-({4-[(2-oxopyridin-1-yl)methyl]phenyl}methyl)pyrazole-4-carboxamide] | 0 | > 40000 | 2930 | 
Nc1nn(Cc2ccc(Cn3ccccc3=O)cc2)cc1C(=O)NCCOc1ccc(Cl)c(Cl)c1 [Example 30, 3-amino-N-[2-(3,4-dichlorophenoxy}ethyl]-1-({4-[(2-oxopyridin-1-yl)methyl]phenyl}methyl)pyrazole-4-carboxamide] | 0 | > 40000 | 96.8 | 
Nc1nn(Cc2ccc(Cn3ccccc3=O)cc2)cc1C(=O)NCCOc1cc(Cl)cc(Cl)c1 [Example 31, 3-amino-N-[2-(3,5-dichlorophenoxy)ethyl]-1-({4-[(2-oxopyridin-1-yl)methyl]phenyl}methyl)pyrazole-4-carboxamide] | 47 | > 40000 | 646 | 
N#Cc1ccc(Cl)cc1OCCNC(=O)c1cn(Cc2ccc(Cn3ccccc3=O)cc2)nc1N [Example 32, 3-amino-N-[2-(5-chloro-2-cyanophenoxy)ethyl]-1-({4-[(2-oxopyridin-1-yl)methyl]phenyl}methyl)pyrazole-4-carboxamide] | 10 | > 40000 | 10.1 | 
Cc1cc(Cl)cc(OCCNC(=O)c2cn(Cc3ccc(Cn4ccccc4=O)cc3)nc2N)c1 [Example 33, 3-amino-N-[2-(3-chloro-5-methylphenoxy)ethyl]-1-({4-[(2-oxopyridin-1-yl)methyl]phenyl}methyl)pyrazole-4-carboxamide] | 29 | > 40000 | 114 | 
Nc1nn(Cc2ccc(Cn3ccccc3=O)cc2)cc1C(=O)NCCOc1cc(Cl)ccc1Cl [Example 34, 3-amino-N-[2-(2,5-dichlorophenoxy)ethyl]-1-({4-[(2-oxopyridin-1-yl)methyl]phenyl}methyl)pyrazole-4-carboxamide] | 7 | > 40000 | 92.8 | 
CN(C)c1nn(Cc2ccc(Cn3ccccc3=O)cc2)cc1C(=O)NCCOc1cccc(Cl)c1 [Example 35, N-[2-(3-chlorophenoxy)ethyl]-3-(dimethylamino)-1-({4-[(2-oxopyridin-1-yl)methyl]phenyl}methyl)pyrazole-4-carboxamide] | 1 | > 40000 | 122 | 
O=C(NCCOc1cccc(Cl)c1)c1cnn(Cc2ccc(Cn3ccccc3=O)cc2)c1 [Example 36, N-[2-(3-chlorophenoxy)ethyl]-1-({4-[(2-oxopyridin-1-yl)methyl]phenyl}methyl)pyrazole-4-carboxamide] | 0 | > 40000 | 6.1 | 
CNc1nn(Cc2ccc(Cn3ccccc3=O)cc2)cc1C(=O)NCCOc1cccc(Cl)c1 [Example 37, N-[2-(3-Chlorophenoxy)ethyl]-3-(methylamino)-1-({4-[(2-oxopyridin-1-yl)methyl]phenyl}methyl)pyrazole-4-carboxamide] | 8 | > 40000 | 18.5 | 
CN(C(=O)CNC(=O)c1cn(Cc2ccc(Cn3ccccc3=O)cc2)nc1N)c1cccc(Cl)c1 [Example 40, 2-{[3-amino-1-({4-[(2-oxopyridin-1-yl)methyl]phenyl}methyl)pyrazol-4-yl]formamido}-N-(3-chlorophenyl)-N-methylacetamide] | 0 | > 40000 | 12.6 | 
CN(CCNC(=O)c1cn(Cc2ccc(Cn3ccccc3=O)cc2)nc1N)c1cccc(Cl)c1 [Example 41, 3-amino-N-{2-[(3-chlorophenyl)(methyl)amino]ethyl}-1-({4-[(2-oxopyridin-1-yl)methyl]phenyl}methyl)pyrazole-4-carboxamide] | 0 | > 40000 | 264 | 
Nc1nn(Cc2ccc(Cn3ccccc3=O)cc2)cc1C(=O)NCCCc1cccc(Cl)c1 [Example 42, 3-amino-N-[3-(3-chlorophenyl)propyl]-1-({4-[(2-oxopyridin-1-yl)methyl]phenyl}methyl)pyrazole-4-carboxamide] | 0 | > 40000 | 3.2 | 
